Reference: ChEMBL document CHEMBL5465560, “Selectivity Literature for EUbOPEN Chemogenomic Library” (2024)

How the values were obtained:
[1] = target: Protein-tyrosine kinase 6 (Homo sapiens, UniProt Q13882); assay: Selectivity interaction (Kinase panel (Z-LYTE Assay)) EUB0001632a PTK6; settings: at 10 µM
[2] = target: Mitogen-activated protein kinase kinase kinase 11 (Homo sapiens) (UniProt Q16584); settings: at 10 µM
[3] = target: Adenosine receptor A1 (Homo sapiens, UniProt P30542); assay: Selectivity interaction (Adenosine 1 receptor binding assay, human recombinant) EUB0000877a ADORA1
[4] = target: Serine/threonine-protein kinase NIM1 (Homo sapiens, UniProt Q8IY84); assay: Selectivity interaction (KinomeScan (DiscoverX)) EUB0001619a NIM1K; settings: at 1 µM
[5] = target: T1, Myosin light chain kinase family member 4 (Homo sapiens) (UniProt Q86YV6); assay: Selectivity interaction (KinomeScan (DiscoverX)) EUB0001619a MYLK4; settings: at 1 µM
T1 sequence (whole entry): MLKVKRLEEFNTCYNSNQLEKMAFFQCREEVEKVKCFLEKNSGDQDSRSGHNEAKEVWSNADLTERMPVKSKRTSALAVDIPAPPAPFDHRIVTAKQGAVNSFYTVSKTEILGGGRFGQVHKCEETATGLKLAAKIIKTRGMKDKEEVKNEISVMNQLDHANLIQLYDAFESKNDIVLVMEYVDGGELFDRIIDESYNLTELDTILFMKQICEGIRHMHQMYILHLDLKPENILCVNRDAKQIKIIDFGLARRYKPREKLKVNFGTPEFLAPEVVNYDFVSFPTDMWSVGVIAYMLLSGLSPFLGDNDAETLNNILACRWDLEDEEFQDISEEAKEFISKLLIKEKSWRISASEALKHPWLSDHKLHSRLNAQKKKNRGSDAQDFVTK

[6] = target: Protein kinase C gamma type (Homo sapiens) (UniProt P05129); assay: Selectivity interaction (SelectScreen profiling (Invitrogen)) EUB0000607a PRKCG; settings: at 2 µM
[7] = target: T2, Serine/threonine-protein kinase 36 (Homo sapiens) (UniProt Q9NRP7); assay: Selectivity interaction (KinomeScan (DiscoverX)) EUB0000618a STK36; settings: at 10 µM
T2 sequence (whole entry): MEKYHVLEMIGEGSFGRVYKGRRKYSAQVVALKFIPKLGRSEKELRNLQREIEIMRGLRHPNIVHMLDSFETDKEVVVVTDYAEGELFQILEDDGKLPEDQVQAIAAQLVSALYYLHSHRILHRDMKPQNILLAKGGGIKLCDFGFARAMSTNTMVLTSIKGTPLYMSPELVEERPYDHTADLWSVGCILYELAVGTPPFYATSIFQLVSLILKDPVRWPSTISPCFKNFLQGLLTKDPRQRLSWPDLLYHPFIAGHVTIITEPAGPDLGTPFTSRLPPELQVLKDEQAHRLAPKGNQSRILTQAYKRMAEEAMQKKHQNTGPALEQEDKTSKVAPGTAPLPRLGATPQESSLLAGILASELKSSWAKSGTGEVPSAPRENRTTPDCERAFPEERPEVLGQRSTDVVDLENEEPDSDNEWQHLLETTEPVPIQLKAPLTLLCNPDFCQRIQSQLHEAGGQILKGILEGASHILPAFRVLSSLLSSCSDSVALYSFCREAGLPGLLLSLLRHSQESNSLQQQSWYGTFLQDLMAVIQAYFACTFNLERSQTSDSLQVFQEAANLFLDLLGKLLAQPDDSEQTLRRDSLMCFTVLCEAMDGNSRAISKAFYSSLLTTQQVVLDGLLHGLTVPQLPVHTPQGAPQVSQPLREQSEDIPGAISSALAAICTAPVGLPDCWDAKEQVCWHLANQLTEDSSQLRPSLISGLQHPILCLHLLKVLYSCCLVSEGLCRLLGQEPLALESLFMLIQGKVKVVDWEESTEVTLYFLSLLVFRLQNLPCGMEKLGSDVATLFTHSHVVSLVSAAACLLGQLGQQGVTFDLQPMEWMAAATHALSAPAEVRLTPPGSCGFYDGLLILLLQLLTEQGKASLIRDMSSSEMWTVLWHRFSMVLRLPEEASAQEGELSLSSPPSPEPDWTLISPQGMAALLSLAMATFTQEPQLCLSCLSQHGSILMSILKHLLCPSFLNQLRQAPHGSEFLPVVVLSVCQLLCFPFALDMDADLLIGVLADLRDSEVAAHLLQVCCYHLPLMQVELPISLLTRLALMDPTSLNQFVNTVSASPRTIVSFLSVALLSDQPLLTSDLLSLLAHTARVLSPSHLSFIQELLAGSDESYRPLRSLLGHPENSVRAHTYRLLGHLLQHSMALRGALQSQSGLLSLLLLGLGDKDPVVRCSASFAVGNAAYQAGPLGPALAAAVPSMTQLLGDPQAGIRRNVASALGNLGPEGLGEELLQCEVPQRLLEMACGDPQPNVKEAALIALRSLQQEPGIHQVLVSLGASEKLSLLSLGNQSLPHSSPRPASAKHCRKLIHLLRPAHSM

[8] = target: Cyclin-dependent kinase 18 (Homo sapiens) (UniProt Q07002); assay: Selectivity interaction (ActivX KiNativ screen (kinase selectivity in THP-1 cell lysates)) EUB0000639a CDK18; type: subcellular; settings: lysate, at 0.2 µM
[9] = target: Proto-oncogene tyrosine-protein kinase ROS (Homo sapiens) (UniProt P08922); assay: Selectivity interaction (KinomeScan (DiscoverX)) EUB0000655a ROS1; settings: at 10 µM
[10] = target: T3, cGMP-dependent protein kinase 1 (Homo sapiens) (UniProt Q13976); assay: Selectivity interaction (Ambit KINOMEscan and KiNATiv profiling in Jurkat cells) EUB0000090b PRKG1; type: cell-based; settings: at 1 µM
T3 sequence (whole entry): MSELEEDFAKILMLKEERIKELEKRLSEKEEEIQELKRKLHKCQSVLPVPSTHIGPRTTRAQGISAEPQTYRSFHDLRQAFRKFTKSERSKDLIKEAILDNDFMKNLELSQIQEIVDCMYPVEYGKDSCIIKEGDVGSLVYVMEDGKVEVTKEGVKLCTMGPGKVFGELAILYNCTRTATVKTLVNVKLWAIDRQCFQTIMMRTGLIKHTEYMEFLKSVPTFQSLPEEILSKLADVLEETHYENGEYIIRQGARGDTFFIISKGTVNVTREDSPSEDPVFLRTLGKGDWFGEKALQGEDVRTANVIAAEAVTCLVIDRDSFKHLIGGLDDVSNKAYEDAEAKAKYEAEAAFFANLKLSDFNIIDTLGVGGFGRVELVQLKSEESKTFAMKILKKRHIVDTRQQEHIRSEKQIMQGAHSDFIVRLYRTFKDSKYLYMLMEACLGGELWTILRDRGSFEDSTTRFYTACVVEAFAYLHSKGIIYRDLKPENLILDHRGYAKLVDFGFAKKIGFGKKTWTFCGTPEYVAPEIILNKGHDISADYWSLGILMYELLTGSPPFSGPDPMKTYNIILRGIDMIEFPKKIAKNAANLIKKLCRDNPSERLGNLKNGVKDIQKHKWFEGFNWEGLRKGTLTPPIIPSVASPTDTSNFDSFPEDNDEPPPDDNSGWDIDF

Sequence of Adenosine receptor A1 (P30542 whole entry): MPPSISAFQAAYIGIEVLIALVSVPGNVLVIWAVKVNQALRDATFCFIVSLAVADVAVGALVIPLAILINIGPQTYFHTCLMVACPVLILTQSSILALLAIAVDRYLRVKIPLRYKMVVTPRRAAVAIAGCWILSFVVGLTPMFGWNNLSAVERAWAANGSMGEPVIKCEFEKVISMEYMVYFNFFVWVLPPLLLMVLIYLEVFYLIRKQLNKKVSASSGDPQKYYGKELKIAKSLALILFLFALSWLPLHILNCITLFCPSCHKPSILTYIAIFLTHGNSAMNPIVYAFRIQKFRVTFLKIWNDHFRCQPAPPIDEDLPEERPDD
Sequence of Proto-oncogene tyrosine-protein kinase ROS (Homo sapiens) (P08922 whole entry): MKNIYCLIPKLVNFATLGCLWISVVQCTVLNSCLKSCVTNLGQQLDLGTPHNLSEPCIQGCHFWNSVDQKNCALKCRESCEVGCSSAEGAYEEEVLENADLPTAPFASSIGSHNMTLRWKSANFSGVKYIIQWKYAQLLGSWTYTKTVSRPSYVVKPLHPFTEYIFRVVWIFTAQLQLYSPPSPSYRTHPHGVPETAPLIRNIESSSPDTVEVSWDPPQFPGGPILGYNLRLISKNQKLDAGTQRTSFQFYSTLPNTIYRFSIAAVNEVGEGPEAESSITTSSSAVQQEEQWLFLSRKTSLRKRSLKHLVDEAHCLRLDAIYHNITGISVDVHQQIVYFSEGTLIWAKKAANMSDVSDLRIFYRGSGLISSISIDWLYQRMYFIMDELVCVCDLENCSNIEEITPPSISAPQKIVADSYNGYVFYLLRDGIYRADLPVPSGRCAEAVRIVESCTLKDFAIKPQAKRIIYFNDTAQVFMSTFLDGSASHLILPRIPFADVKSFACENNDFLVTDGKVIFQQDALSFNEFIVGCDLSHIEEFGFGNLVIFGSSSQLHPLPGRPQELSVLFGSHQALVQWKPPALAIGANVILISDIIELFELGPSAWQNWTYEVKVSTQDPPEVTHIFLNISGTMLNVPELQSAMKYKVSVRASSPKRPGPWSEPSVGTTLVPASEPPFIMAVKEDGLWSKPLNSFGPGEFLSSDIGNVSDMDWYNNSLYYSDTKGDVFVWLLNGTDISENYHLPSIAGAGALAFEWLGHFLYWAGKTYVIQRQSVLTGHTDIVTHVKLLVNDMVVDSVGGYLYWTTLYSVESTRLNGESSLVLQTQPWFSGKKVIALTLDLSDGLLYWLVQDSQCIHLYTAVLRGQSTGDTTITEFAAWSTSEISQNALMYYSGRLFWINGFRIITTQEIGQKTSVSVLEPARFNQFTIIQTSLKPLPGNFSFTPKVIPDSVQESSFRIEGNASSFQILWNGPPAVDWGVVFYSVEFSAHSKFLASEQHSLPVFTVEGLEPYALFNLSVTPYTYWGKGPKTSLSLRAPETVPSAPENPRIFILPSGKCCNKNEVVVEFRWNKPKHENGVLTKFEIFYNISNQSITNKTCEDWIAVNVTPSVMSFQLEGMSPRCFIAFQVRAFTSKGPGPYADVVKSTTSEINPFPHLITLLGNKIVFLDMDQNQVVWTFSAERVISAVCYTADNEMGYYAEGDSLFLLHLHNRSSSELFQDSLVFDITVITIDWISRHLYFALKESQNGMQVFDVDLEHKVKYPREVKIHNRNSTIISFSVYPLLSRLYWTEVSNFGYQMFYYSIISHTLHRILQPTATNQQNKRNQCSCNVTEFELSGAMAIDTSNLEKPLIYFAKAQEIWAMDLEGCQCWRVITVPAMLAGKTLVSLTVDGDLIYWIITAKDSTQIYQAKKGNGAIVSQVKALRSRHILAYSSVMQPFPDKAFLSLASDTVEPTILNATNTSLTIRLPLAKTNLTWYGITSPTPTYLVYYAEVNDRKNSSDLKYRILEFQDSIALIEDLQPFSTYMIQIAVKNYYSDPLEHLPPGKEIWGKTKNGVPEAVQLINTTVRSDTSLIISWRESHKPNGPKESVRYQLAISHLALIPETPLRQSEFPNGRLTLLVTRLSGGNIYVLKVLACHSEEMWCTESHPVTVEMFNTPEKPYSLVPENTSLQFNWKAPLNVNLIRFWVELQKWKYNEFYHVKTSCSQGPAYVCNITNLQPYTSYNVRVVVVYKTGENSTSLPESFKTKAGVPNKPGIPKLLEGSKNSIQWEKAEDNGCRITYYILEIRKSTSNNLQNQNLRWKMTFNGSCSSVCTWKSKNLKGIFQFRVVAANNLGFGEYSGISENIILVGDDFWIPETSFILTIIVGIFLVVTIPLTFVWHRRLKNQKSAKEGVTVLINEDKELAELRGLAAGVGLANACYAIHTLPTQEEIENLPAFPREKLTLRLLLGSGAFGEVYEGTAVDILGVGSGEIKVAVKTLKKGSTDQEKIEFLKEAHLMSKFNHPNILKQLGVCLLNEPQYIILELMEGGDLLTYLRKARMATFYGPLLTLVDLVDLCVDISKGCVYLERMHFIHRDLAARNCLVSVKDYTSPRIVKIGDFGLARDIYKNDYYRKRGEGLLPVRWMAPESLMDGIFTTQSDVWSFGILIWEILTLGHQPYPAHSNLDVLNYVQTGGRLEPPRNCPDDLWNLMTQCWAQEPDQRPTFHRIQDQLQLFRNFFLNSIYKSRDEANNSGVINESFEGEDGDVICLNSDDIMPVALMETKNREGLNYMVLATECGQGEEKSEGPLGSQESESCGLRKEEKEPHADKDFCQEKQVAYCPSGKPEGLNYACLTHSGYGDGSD
Sequence of Cyclin-dependent kinase 18 (Homo sapiens) (Q07002 whole entry): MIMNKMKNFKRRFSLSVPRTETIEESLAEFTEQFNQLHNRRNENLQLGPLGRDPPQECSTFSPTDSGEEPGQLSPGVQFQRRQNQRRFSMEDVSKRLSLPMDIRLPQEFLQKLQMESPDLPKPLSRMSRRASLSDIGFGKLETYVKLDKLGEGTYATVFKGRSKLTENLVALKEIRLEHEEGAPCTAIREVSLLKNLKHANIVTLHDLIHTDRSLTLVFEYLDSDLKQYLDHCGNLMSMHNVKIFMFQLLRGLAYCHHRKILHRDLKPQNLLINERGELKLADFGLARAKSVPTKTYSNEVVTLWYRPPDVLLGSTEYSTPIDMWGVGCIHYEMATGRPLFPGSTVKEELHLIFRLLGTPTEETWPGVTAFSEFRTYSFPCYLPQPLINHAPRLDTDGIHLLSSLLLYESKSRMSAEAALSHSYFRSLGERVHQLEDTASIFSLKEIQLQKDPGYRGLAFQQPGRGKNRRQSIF
Sequence of Mitogen-activated protein kinase kinase kinase 11 (Homo sapiens) (Q16584 whole entry, looked up): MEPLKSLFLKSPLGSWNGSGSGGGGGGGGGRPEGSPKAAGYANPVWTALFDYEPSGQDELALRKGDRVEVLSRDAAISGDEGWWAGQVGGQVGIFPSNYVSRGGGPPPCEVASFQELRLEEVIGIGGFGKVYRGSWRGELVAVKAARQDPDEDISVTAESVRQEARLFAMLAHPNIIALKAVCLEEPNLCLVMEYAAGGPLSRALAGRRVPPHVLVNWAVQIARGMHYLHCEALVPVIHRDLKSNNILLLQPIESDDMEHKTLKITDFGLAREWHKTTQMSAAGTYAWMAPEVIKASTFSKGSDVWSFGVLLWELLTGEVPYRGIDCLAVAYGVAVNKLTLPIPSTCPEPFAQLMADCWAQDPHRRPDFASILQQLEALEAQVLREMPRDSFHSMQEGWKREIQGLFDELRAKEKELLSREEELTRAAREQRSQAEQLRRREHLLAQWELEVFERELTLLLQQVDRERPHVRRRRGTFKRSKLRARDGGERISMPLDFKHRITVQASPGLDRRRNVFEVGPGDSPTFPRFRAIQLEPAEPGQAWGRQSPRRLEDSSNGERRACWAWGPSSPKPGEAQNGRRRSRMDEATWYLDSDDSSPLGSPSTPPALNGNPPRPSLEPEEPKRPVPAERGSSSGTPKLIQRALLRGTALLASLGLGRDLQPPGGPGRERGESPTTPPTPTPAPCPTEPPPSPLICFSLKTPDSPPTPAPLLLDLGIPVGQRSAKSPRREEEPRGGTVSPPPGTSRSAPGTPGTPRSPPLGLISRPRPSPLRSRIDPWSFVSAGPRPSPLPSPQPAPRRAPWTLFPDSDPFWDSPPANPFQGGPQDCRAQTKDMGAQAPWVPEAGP

Cn1cc(-n2cnc3c(NCc4nc5cc(Cl)c(Cl)cc5[nH]4)nc(N4CCOCC4)nc32)cn1
% of control [1]: 9.47%

Cc1cc([C@@H](C)Nc2ccccc2C(=O)O)c2nc(N3CCOCC3)cc(=O)n2c1 [AZD-6482]
% of control [2]: 100%

CCC(=O)N1CC[C@H](Nc2ncnc3c2CN(c2cnc(OC)c(C(F)(F)F)c2)CC3)C1 [LENIOLISIB]
IC50 [3]: > 30 µM

N#Cc1cccc(-c2c[nH]c3ncnc(N4CCOCC4)c23)c1
% of control [4]: 80% | % of control [5]: 100%

CNC(=O)Nc1ccc(-c2nc(N3CC4CCC(C3)O4)c3cnn(C4CCC5(CC4)OCCO5)c3n2)cc1
% of inhibition [6]: 11%

O[C@H]1CC[C@H](Nc2ncc3nc(Nc4c(F)cc(F)cc4F)n([C@H]4CCOC4)c3n2)CC1
% of control [7]: 6.5%

CC[C@@H]1[C@H](F)C(=O)N[C@@H]1COc1nccc2cc(C(N)=O)c(OC)cc12 [ZIMLOVISERTIB]
% of inhibition [8]: 0.4%

CN(C)CCOc1ccc(-c2nc(-c3ccncc3)c(-c3ccc4c(c3)CC/C4=N\O)[nH]2)cc1
% of control [9]: 88%

CN(C)C/C=C/C(=O)Nc1ccc(C(=O)N2CCCC(Nc3ncc(Cl)c(-c4c[nH]c5ccccc45)n3)C2)cc1 (stereo not given)
% of control [10]: 97%
